# Experimental data as given in patent publication US9963442B2, “Pyridones as herbicides” (E I DU PONT DE NEMOURS AND COMPANY, priority 2014, dated 2018).
# Legend:
# Format in all cases: in vivo
# [1] = tested on: Italian ryegrass (Lolium multiflorum); test: Test A preemergence, directed soil spray; conditions: approx. 10 days
# Source text: (§1) Seeds of plant species selected from barnyardgrass (Echinochloa crus-galli), kochia (Kochia scoparia), ragweed (common ragweed, Ambrosia elatior), Italian ryegrass (Lolium multiflorum), giant foxtail (Setaria faberii), and pigweed (Amaranthus retroflexus) were planted into a blend of loam soil and sand and treated preemergence with a directed soil spray using test chemicals formulated in a non-phytotoxic solvent mixture which included a surfactant. At the same time, plants selected from these weed species and also wheat (Triticum aestivum), corn (Zea mays), blackgrass (Alopecurus myosuroides), and galium (catchweed bedstraw, Galium aparine) were planted in pots containing the same blend of loam soil and sand and treated with postemergence applications of test chemicals formulated in the same manner. Plants ranged in height from 2 to 10 cm and were in the one- to two-leaf stage for the postemergence treatment. Treated plants and untreated controls were maintained in a greenhouse for approximately 10 days, after which time all treated plants were compared to untreated controls and visually evaluated for injury. Plant response ratings, summarized in Table A, are based on a 0 to 100 scale where 0 is no effect and 100 is complete control. A dash (-) response means no test result.
# [2] = tested on: barnyardgrass (Echinochloa crus-galli); test: Test A preemergence, directed soil spray; conditions: approx. 10 days
# Source text: as §1
# [3] = tested on: ragweed (common ragweed, Ambrosia elatior); test: Test A preemergence, directed soil spray; conditions: approx. 10 days
# Source text: as §1
# [4] = tested on: giant foxtail (Setaria faberii); test: Test A preemergence, directed soil spray; conditions: approx. 10 days
# Source text: as §1
# kochia (Kochia scoparia) [5] = test: Test A preemergence, directed soil spray; conditions: approx. 10 days
# Source text: as §1
# [6] = tested on: pigweed (Amaranthus retroflexus); test: Test A preemergence, directed soil spray; conditions: approx. 10 days
# Source text: as §1
# [7] = tested on: wheat (Triticum aestivum); test: Test A postemergence application; conditions: approx. 10 days
# Source text: as §1
# corn (Zea mays) = test: Test A postemergence application; conditions: approx. 10 days
# Source text: as §1
# [8] = tested on: Italian ryegrass (Lolium multiflorum); test: Test A postemergence application; conditions: approx. 10 days
# Source text: as §1
# [9] = tested on: galium (catchweed bedstraw, Galium aparine); test: Test A postemergence application; conditions: approx. 10 days
# Source text: as §1
# [10] = tested on: barnyardgrass (Echinochloa crus-galli); test: Test A postemergence application; conditions: approx. 10 days
# Source text: as §1
# [11] = tested on: ragweed (common ragweed, Ambrosia elatior); test: Test A postemergence application; conditions: approx. 10 days
# Source text: as §1
# [12] = tested on: giant foxtail (Setaria faberii); test: Test A postemergence application; conditions: approx. 10 days
# Source text: as §1
# [13] = tested on: blackgrass (Alopecurus myosuroides); test: Test A postemergence application; conditions: approx. 10 days
# Source text: as §1
# kochia (Kochia scoparia) [14] = test: Test A postemergence application; conditions: approx. 10 days
# Source text: as §1
# [15] = tested on: pigweed (Amaranthus retroflexus); test: Test A postemergence application; conditions: approx. 10 days
# Source text: as §1
# [16] = tested on: barnyardgrass (Echinochloa crus-galli); test: Test B flooded paddy test; design: key: 0 = no effect, 100 = complete control; conditions: Flood, 250 g ai/ha applied to paddy water at 2-leaf stage; visually evaluated after 13 to 15 days; scale 0 (no effect) to 100 (complete control)
# Protocol: (§2) Plant species in the flooded paddy test selected from rice (Oryza sativa), sedge, umbrella (small-flower umbrella sedge, Cyperus difformis), ducksalad (Heteranthera limosa), and barnyardgrass (Echinochloa crus-galli) were grown to the 2-leaf stage for testing. At time of treatment, test pots were flooded to 3 cm above the soil surface, treated by application of test compounds directly to the paddy water, and then maintained at that water depth for the duration of the test. Treated plants and controls were maintained in a greenhouse for 13 to 15 days, after which time all species were compared to controls and visually evaluated. Plant response ratings, summarized in Table B, are based on a scale of 0 to 100 where 0 is no effect and 100 is complete control. A dash (-) response means no test result.
# [17] = tested on: sedge, umbrella (small-flower umbrella sedge, Cyperus difformis); test: Test B flooded paddy test; design: key: 0 = no effect, 100 = complete control; conditions: Flood, 250 g ai/ha applied to paddy water at 2-leaf stage; visually evaluated after 13 to 15 days; scale 0 (no effect) to 100 (complete control)
# Protocol: as §2
# rice (Oryza sativa) = test: Test B flooded paddy test; design: key: 0 = no effect, 100 = complete control; conditions: Flood, 250 g ai/ha applied to paddy water at 2-leaf stage; visually evaluated after 13 to 15 days; scale 0 (no effect) to 100 (complete control)
# Protocol: as §2
# [18] = tested on: ducksalad (Heteranthera limosa); test: Test B flooded paddy test; design: key: 0 = no effect, 100 = complete control; conditions: Flood, 250 g ai/ha applied to paddy water at 2-leaf stage; visually evaluated after 13 to 15 days; scale 0 (no effect) to 100 (complete control)
# Protocol: as §2
Compound,"Plant response rating (0 to 100 scale, 0 no effect, 100 complete control), Ryegrass, Italian ([1]; 125 g ai/ha)","Plant response rating (0 to 100 scale, 0 no effect, 100 complete control), Barnyardgrass ([2]; 125 g ai/ha)","Plant response rating (0 to 100 scale, 0 no effect, 100 complete control), Ragweed ([3]; 125 g ai/ha)","Plant response rating (0 to 100 scale, 0 no effect, 100 complete control), Foxtail, Giant ([4]; 125 g ai/ha)","Plant response rating (0 to 100 scale, 0 no effect, 100 complete control), Kochia (kochia (Kochia scoparia) [5]; 125 g ai/ha)","Plant response rating (0 to 100 scale, 0 no effect, 100 complete control), Pigweed ([6]; 125 g ai/ha)","Plant response rating (0 to 100 scale, 0 no effect, 100 complete control), Wheat ([7]; 125 g ai/ha)","Plant response rating (0 to 100 scale, 0 no effect, 100 complete control), Corn (corn (Zea mays); 125 g ai/ha)","Plant response rating (0 to 100 scale, 0 no effect, 100 complete control), Ryegrass, Italian ([8]; 125 g ai/ha)","Plant response rating (0 to 100 scale, 0 no effect, 100 complete control), Galium ([9]; 125 g ai/ha)","Plant response rating (0 to 100 scale, 0 no effect, 100 complete control), Barnyardgrass ([10]; 125 g ai/ha)","Plant response rating (0 to 100 scale, 0 no effect, 100 complete control), Ragweed ([11]; 125 g ai/ha)","Plant response rating (0 to 100 scale, 0 no effect, 100 complete control), Foxtail, Giant ([12]; 125 g ai/ha)","Plant response rating (0 to 100 scale, 0 no effect, 100 complete control), Blackgrass ([13]; 125 g ai/ha)","Plant response rating (0 to 100 scale, 0 no effect, 100 complete control), Kochia (kochia (Kochia scoparia) [14]; 125 g ai/ha)","Plant response rating (0 to 100 scale, 0 no effect, 100 complete control), Pigweed ([15]; 125 g ai/ha)","Plant response rating, Barnyardgrass [16]","Plant response rating, Sedge, Umbrella [17]","Plant response rating, Rice (rice (Oryza sativa))","Plant response rating, Ducksalad [18]",further results
O=c1cccc(Oc2ncc(Cl)cn2)n1-c1ccc(F)cn1 [Compound 9],0,0,70,70,50,80,0,10,20,60,10,40,20,10,90,80,0,40,0,60,"Plant response rating (0 to 100 scale, 0 no effect, 100 complete control), Ryegrass, Italian ([1]; 31 g ai/ha): 0; Plant response rating (0 to 100 scale, 0 no effect, 100 complete control), Barnyardgrass ([2]; 31 g ai/ha): 0; Plant response rating (0 to 100 scale, 0 no effect, 100 complete control), Foxtail, Giant ([4]; 31 g ai/ha): 10; Plant response rating (0 to 100 scale, 0 no effect, 100 complete control), Kochia (kochia (Kochia scoparia) [5]; 31 g ai/ha): 20; Plant response rating (0 to 100 scale, 0 no effect, 100 complete control), Pigweed ([6]; 31 g ai/ha): 50; Plant response rating (0 to 100 scale, 0 no effect, 100 complete control), Wheat ([7]; 31 g ai/ha): 0; Plant response rating (0 to 100 scale, 0 no effect, 100 complete control), Corn (corn (Zea mays); 31 g ai/ha): 10; Plant response rating (0 to 100 scale, 0 no effect, 100 complete control), Ryegrass, Italian ([8]; 31 g ai/ha): 0; Plant response rating (0 to 100 scale, 0 no effect, 100 complete control), Galium ([9]; 31 g ai/ha): 30; Plant response rating (0 to 100 scale, 0 no effect, 100 complete control), Barnyardgrass ([10]; 31 g ai/ha): 0; Plant response rating (0 to 100 scale, 0 no effect, 100 complete control), Ragweed ([11]; 31 g ai/ha): 20; Plant response rating (0 to 100 scale, 0 no effect, 100 complete control), Foxtail, Giant ([12]; 31 g ai/ha): 0; Plant response rating (0 to 100 scale, 0 no effect, 100 complete control), Blackgrass ([13]; 31 g ai/ha): 0; Plant response rating (0 to 100 scale, 0 no effect, 100 complete control), Kochia (kochia (Kochia scoparia) [14]; 31 g ai/ha): 70; Plant response rating (0 to 100 scale, 0 no effect, 100 complete control), Pigweed ([15]; 31 g ai/ha): 50"
O=c1cccc(Oc2ncc(Cl)cn2)n1-c1ccc(Cl)cn1 [Compound 8],10,30,20,80,100,100,0,20,20,70,30,70,70,20,90,90,0,65,0,75,"Plant response rating (0 to 100 scale, 0 no effect, 100 complete control), Ryegrass, Italian ([1]; 31 g ai/ha): 0; Plant response rating (0 to 100 scale, 0 no effect, 100 complete control), Barnyardgrass ([2]; 31 g ai/ha): 0; Plant response rating (0 to 100 scale, 0 no effect, 100 complete control), Ragweed ([3]; 31 g ai/ha): 0; Plant response rating (0 to 100 scale, 0 no effect, 100 complete control), Foxtail, Giant ([4]; 31 g ai/ha): 40; Plant response rating (0 to 100 scale, 0 no effect, 100 complete control), Kochia (kochia (Kochia scoparia) [5]; 31 g ai/ha): 30; Plant response rating (0 to 100 scale, 0 no effect, 100 complete control), Pigweed ([6]; 31 g ai/ha): 70; Plant response rating (0 to 100 scale, 0 no effect, 100 complete control), Wheat ([7]; 31 g ai/ha): 0; Plant response rating (0 to 100 scale, 0 no effect, 100 complete control), Corn (corn (Zea mays); 31 g ai/ha): 10; Plant response rating (0 to 100 scale, 0 no effect, 100 complete control), Ryegrass, Italian ([8]; 31 g ai/ha): 10; Plant response rating (0 to 100 scale, 0 no effect, 100 complete control), Galium ([9]; 31 g ai/ha): 60; Plant response rating (0 to 100 scale, 0 no effect, 100 complete control), Barnyardgrass ([10]; 31 g ai/ha): 10; Plant response rating (0 to 100 scale, 0 no effect, 100 complete control), Ragweed ([11]; 31 g ai/ha): 30; Plant response rating (0 to 100 scale, 0 no effect, 100 complete control), Foxtail, Giant ([12]; 31 g ai/ha): 20; Plant response rating (0 to 100 scale, 0 no effect, 100 complete control), Blackgrass ([13]; 31 g ai/ha): 10; Plant response rating (0 to 100 scale, 0 no effect, 100 complete control), Kochia (kochia (Kochia scoparia) [14]; 31 g ai/ha): 70; Plant response rating (0 to 100 scale, 0 no effect, 100 complete control), Pigweed ([15]; 31 g ai/ha): 80"
"O=c1cccc(Oc2ncc(Cl)cn2)n1-c1cccc(C(F)(F)F)c1 [Compound 2, 6-[(5-chloro-2-pyrimidinyl)oxy]-1-[3-(trifluoromethyl)phenyl]-2(1H)-pyridinone]",0,0,0,0,0,0,0,0,0,20,0,0,0,0,30,30,0,0,0,0,"Plant response rating (0 to 100 scale, 0 no effect, 100 complete control), Ryegrass, Italian ([1]; 500 g ai/ha): 0; Plant response rating (0 to 100 scale, 0 no effect, 100 complete control), Barnyardgrass ([2]; 500 g ai/ha): 0; Plant response rating (0 to 100 scale, 0 no effect, 100 complete control), Ragweed ([3]; 500 g ai/ha): 0; Plant response rating (0 to 100 scale, 0 no effect, 100 complete control), Foxtail, Giant ([4]; 500 g ai/ha): 90; Plant response rating (0 to 100 scale, 0 no effect, 100 complete control), Kochia (kochia (Kochia scoparia) [5]; 500 g ai/ha): 30; Plant response rating (0 to 100 scale, 0 no effect, 100 complete control), Pigweed ([6]; 500 g ai/ha): 20; Plant response rating (0 to 100 scale, 0 no effect, 100 complete control), Wheat ([7]; 500 g ai/ha): 20; Plant response rating (0 to 100 scale, 0 no effect, 100 complete control), Corn (corn (Zea mays); 500 g ai/ha): 20; Plant response rating (0 to 100 scale, 0 no effect, 100 complete control), Ryegrass, Italian ([8]; 500 g ai/ha): 0; Plant response rating (0 to 100 scale, 0 no effect, 100 complete control), Galium ([9]; 500 g ai/ha): 60; Plant response rating (0 to 100 scale, 0 no effect, 100 complete control), Barnyardgrass ([10]; 500 g ai/ha): 0; Plant response rating (0 to 100 scale, 0 no effect, 100 complete control), Ragweed ([11]; 500 g ai/ha): 0; Plant response rating (0 to 100 scale, 0 no effect, 100 complete control), Foxtail, Giant ([12]; 500 g ai/ha): 60; Plant response rating (0 to 100 scale, 0 no effect, 100 complete control), Blackgrass ([13]; 500 g ai/ha): 0; Plant response rating (0 to 100 scale, 0 no effect, 100 complete control), Kochia (kochia (Kochia scoparia) [14]; 500 g ai/ha): 90; Plant response rating (0 to 100 scale, 0 no effect, 100 complete control), Pigweed ([15]; 500 g ai/ha): 80"
